Experiments:
[1] = tested on: KP1009 (CTX-M-15); assay: Tigemonam potentiation (MPC@4), KP1009; type: cell-based; conditions: BLI with tigemonam at 4 μg/mL
[2] = tested on: ec302 (TEM-10); assay: Aztreonam potentiation (MPC@4), ec302; type: cell-based; conditions: BLI with aztreonam at 4 μg/mL
[3] = target: Pa AmpC (Pseudomonas aeruginosa, UniProt P24735); assay: Ki, nitrocefin cleavage by purified enzyme, Pa AmpC; type: biochemical; conditions: nitrocefin reporter substrate; read-out: Ki (Pa AmpC, NCF)
Pa AmpC, sequence (P24735 27-397): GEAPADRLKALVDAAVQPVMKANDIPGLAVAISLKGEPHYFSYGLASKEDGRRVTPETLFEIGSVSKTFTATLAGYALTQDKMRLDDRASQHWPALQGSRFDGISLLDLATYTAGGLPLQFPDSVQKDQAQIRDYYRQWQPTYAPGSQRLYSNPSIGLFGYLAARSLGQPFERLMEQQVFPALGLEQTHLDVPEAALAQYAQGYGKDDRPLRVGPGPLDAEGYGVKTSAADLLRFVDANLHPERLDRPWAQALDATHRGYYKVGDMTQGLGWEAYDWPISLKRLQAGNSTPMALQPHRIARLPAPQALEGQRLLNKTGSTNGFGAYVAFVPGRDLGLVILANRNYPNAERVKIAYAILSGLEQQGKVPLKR
Procedure, shortened: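 Kinetic read at 490 nm (every 10 sec, 10 min) of nitrocefin cleavage; purified enzyme preincubated 10 min at room temperature with inhibitor series; Ki determined.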

[4] = target: P99 (Enterobacter cloacae, UniProt P05364); assay: Ki, nitrocefin cleavage by purified enzyme, P99; type: biochemical; conditions: nitrocefin reporter substrate; read-out: Ki (P99, NCF)
P99, sequence (P05364 21-381): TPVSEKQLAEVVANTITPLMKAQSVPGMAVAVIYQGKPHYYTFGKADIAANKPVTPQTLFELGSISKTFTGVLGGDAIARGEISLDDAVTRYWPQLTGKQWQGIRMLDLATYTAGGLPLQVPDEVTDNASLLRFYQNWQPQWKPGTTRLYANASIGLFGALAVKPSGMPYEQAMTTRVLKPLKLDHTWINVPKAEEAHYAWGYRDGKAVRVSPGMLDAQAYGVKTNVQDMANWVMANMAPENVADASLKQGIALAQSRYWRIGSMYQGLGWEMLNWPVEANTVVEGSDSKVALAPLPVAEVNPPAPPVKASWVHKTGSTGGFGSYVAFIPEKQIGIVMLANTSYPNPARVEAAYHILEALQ
Procedure, shortened: (§1)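 Purified enzyme was preincubated with a range of inhibitor concentrations in reaction buffer for 10 min at room temperature. Nitrocefin was then added and its cleavage followed at 490 nm every 10 sec for 10 min.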

[5] = tested on: KP1005 (CTX-M-14); assay: Aztreonam potentiation (MPC@4), KP1005; type: cell-based; conditions: BLI with aztreonam at 4 μg/mL
[6] = tested on: KP1010 (SHV-12); assay: Tigemonam potentiation (MPC@4), KP1010; type: cell-based
[7] = tested on: KP1009 (CTX-M-15); assay: organism not typed; type: cell-based
[8] = target: CTX-M-14 (Escherichia coli, UniProt Q9L5C7); assay: Ki, nitrocefin cleavage by purified enzyme, CTX-M-14; type: biochemical; conditions: nitrocefin reporter substrate; read-out: Ki (CTX-M-14, NCF)
CTX-M-14, sequence (Q9L5C7 29-291): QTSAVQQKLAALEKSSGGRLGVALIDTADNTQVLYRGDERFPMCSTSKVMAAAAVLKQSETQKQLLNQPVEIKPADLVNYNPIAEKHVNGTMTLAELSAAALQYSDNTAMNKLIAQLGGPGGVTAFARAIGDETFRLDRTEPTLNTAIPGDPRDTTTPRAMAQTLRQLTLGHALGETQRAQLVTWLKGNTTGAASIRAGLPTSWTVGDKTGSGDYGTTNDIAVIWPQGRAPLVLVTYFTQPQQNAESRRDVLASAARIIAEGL
Procedure, shortened: as §1

[9] = tested on: EC1010 (CMY-6); assay: organism not typed; type: cell-based
[10] = tested on: KP1004 (KPC-2); assay: Biapenem potentiation (MPC@1), KP1004; conditions: BLI with biapenem at 1 μg/mL
[11] = tested on: KP1086 (OXA-48); assay: Biapenem potentiation (MPC@1), KP1086; conditions: BLI with biapenem at 1 μg/mL
[12] = target: KPC-2 (Klebsiella pneumoniae, UniProt Q9F663); assay: Ki, nitrocefin cleavage by purified enzyme, KPC-2; type: biochemical; conditions: nitrocefin reporter substrate; read-out: Ki (KPC-2, NCF)
KPC-2, sequence (Q9F663 25-293, looked up, species assumed): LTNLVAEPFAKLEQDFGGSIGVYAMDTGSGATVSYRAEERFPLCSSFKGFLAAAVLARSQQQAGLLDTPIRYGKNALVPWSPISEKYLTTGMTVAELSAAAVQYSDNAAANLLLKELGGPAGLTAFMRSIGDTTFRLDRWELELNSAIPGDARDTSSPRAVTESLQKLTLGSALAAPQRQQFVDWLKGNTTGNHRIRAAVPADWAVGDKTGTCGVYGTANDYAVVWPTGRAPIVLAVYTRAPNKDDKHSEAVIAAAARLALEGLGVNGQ
Procedure, shortened: as §1

[13] = tested on: EC1010 (CMY-6); assay: Tigemonam potentiation (MPC@4), EC1010; type: cell-based; conditions: BLI with tigemonam at 4 μg/mL
[14] = target: OXA-48 (Klebsiella pneumoniae, UniProt Q6XEC0); assay: Ki, nitrocefin cleavage by purified enzyme, OXA-48; type: biochemical; conditions: nitrocefin reporter substrate; read-out: Ki (OXA-48, NCF)
OXA-48, sequence (Q6XEC0 23-265, looked up, species assumed): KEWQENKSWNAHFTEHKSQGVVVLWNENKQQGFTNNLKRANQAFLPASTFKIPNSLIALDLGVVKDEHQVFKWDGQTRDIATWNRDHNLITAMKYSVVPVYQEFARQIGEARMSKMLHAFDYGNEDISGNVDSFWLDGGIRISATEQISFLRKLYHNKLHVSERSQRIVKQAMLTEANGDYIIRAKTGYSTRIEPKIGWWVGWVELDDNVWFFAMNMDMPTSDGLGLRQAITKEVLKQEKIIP
Procedure, shortened: as §1

[15] = Monomer content of pH adjusted aqueous solutions (LC-UV); type: physicochemical; conditions: 1 mg/mL aqueous salt solution, pH adjusted to 7.6 to 8, LC-UV
Procedure, shortened: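 Aqueous solutions at 1.00, 10.0 or 100 mg/mL (active fraction) brought to pH 7.6–8 with acid or base, compound fully dissolved. Injected within half an hour of preparation onto C18 reversed-phase LC (0.1% TFA water / 0.085% TFA methanol gradient); UV detection at 220, 254 and 300 nm.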

[16] = tested on: ECL1002; assay: Aztreonam potentiation (MPC@4), ECL1002; type: cell-based; conditions: BLI with aztreonam at 4 μg/mL
[17] = tested on: KP1005 (CTX-M-14); assay: Tigemonam potentiation (MPC@4), KP1005; type: cell-based; conditions: BLI with tigemonam at 4 μg/mL
[18] = tested on: KP1004 (KPC-2); assay: Aztreonam potentiation (MPC@4), KP1004; type: cell-based; conditions: BLI with aztreonam at 4 μg/mL
[19] = tested on: ec308 (SHV-5); assay: Tigemonam potentiation (MPC@4), ec308; type: cell-based
[20] = tested on: ECL1002; assay: Tigemonam potentiation (MPC@4), ECL1002; type: cell-based; conditions: BLI with tigemonam at 4 μg/mL
[21] = target: SHV-12 (Klebsiella pneumoniae, UniProt P0AD64, E235K/G234S/L31Q); assay: Ki, nitrocefin cleavage by purified enzyme, SHV-12; type: biochemical; conditions: nitrocefin reporter substrate; read-out: Ki (SHV-12, NCF)
SHV-12, sequence (P0AD64 22-286 L31Q/G234S/E235K): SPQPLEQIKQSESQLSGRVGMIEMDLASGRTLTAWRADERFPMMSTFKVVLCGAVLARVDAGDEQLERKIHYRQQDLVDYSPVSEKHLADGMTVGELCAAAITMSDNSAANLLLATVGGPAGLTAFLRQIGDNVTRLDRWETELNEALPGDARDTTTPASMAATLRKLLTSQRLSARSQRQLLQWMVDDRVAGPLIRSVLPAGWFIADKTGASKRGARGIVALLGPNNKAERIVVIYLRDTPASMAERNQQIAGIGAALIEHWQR
Procedure, shortened: as §1

[22] = tested on: ec302 (TEM-10); assay: Tigemonam potentiation (MPC@4), ec302; type: cell-based
[23] = tested on: ec308 (SHV-5); assay: Aztreonam potentiation (MPC@4), ec308; type: cell-based; conditions: BLI with aztreonam at 4 μg/mL

| Structure (SMILES) | TIG MPC4 CTX-M-15 KP1009 [1] | AZT MPC4 TEM-10 ec302 [2] | Ki [3] [nM] | Ki [4] [nM] | AZT MPC4 CTX-M-14 KP1005 [5] | TIG MPC4 SHV-12 KP1010 [6] | AZT MPC4 CTX-M-15 KP1009 [7] | Ki [8] [nM] | AZT MPC4 CMY-6 EC1010 [9] | BPM MPC1 KP1004 KPC-2 [10] | BPM MPC1 OXA-48 KP1086 [11] | Ki [12] [nM] | TIG MPC4 CMY-6 EC1010 [13] | Ki [14] [nM] | % Monomer in 1 mg/mL salt solution [15] [%] | AZT MPC4 ECL1002 [16] | TIG MPC4 CTX-M-14 KP1005 [17] | AZT MPC4 KPC-2 KP1004 [18] | TIG MPC4 SHV-5 ec308 [19] | TIG MPC4 ECL1002 [20] | also measured |
| --- | --- | --- | --- | --- | --- | --- | --- | --- | --- | --- | --- | --- | --- | --- | --- | --- | --- | --- | --- | --- | --- |
| CSCC(=O)N[C@H]1Cc2ccc(SCC3CCNCC3)c(C(=O)O)c2OB1O [Compound 24, (R)-2-hydroxy-3-(2-(methylthio)acetamido)-7-(piperidin-4-ylmethylthio)-3,4-dihydro-2H-benzo[e][1,2]oxaborinine-8-carboxylic acid] | Y (MIC of 1 μg/mL to 10 μg/mL) | Y (MIC of 1 μg/mL to 10 μg/mL) | > 10 | > 10 | Y (MIC of 1 μg/mL to 10 μg/mL) | X (key: X: MIC of less than 1 μg/mL; Y: MIC of 1 μg/mL to 10 μg/mL; Z: MIC of greater than 10 μg/mL) | Y (key: X: MIC of less than 1 ng/mL; Y: MIC of 1 μg/mL to 10 μg/mL; Z: MIC of greater than 10 μg/mL) | < 1 | Y (key: X: MIC of less than 1 ng/mL; Y: MIC of 1 μg/mL to 10 μg/mL; Z: MIC of greater than 10 μg/mL) | X (MIC of less than 1 μg/mL) | Z (MIC of greater than 10 μg/mL) | > 10 | Y (MIC of 1 μg/mL to 10 μg/mL) | < 1 | 98.3 | Y (MIC of 1 μg/mL to 10 μg/mL) | Y (MIC of 1 μg/mL to 10 μg/mL) | Y (MIC of 1 μg/mL to 10 μg/mL) | Y (key: X: MIC of less than 1 ng/mL; Y: MIC of 1 μg/mL to 10 μg/mL; Z: MIC of greater than 10 μg/mL) | Y (MIC of 1 μg/mL to 10 μg/mL) | Ki [21]: 1 to 10 nM; TIG MPC4 TEM-10 ec302 [22]: Z (key: X: MIC of less than 1 ng/mL; Y: MIC of 1 μg/mL to 10 μg/mL; Z: MIC of greater than 10 μg/mL) |
| CSCC(=O)N[C@@H]1Cc2ccc(F)c(C(=O)O)c2OB1O [Compound 31, (S)-7-fluoro-2-hydroxy-3-(2-(methylthio)acetamido)-3,4-dihydro-2H-benzo[e][1,2]oxaborinine-8-carboxylic acid] | Y (MIC of 1 μg/mL to 10 μg/mL) | Y (MIC of 1 μg/mL to 10 μg/mL) | > 10 | > 10 | Y (MIC of 1 μg/mL to 10 μg/mL) | X (key: X: MIC of less than 1 μg/mL; Y: MIC of 1 μg/mL to 10 μg/mL; Z: MIC of greater than 10 μg/mL) | Y (key: X: MIC of less than 1 ng/mL; Y: MIC of 1 μg/mL to 10 μg/mL; Z: MIC of greater than 10 μg/mL) | 1 to 10 | Y (key: X: MIC of less than 1 ng/mL; Y: MIC of 1 μg/mL to 10 μg/mL; Z: MIC of greater than 10 μg/mL) | X (MIC of less than 1 μg/mL) | Z (MIC of greater than 10 μg/mL) | > 10 | Y (MIC of 1 μg/mL to 10 μg/mL) | 1 to 10 | 99.7 | Y (MIC of 1 μg/mL to 10 μg/mL) | Y (MIC of 1 μg/mL to 10 μg/mL) | Y (MIC of 1 μg/mL to 10 μg/mL) | X (key: X: MIC of less than 1 μg/mL; Y: MIC of 1 μg/mL to 10 μg/mL; Z: MIC of greater than 10 μg/mL) | X (MIC of less than 1 μg/mL) | Ki [21]: < 1 nM; TIG MPC4 TEM-10 ec302 [22]: Z (key: X: MIC of less than 1 ng/mL; Y: MIC of 1 μg/mL to 10 μg/mL; Z: MIC of greater than 10 μg/mL) |
| CSCC(=O)N[C@H]1Cc2c(F)cc(F)c(C(=O)O)c2OB1O [Compound 32, (R)-5,7-difluoro-2-hydroxy-3-(2-(methylthio)acetamido)-3,4-dihydro-2H-benzo[e][1,2]oxaborinine-8-carboxylic acid] | Y (MIC of 1 μg/mL to 10 μg/mL) | Y (MIC of 1 μg/mL to 10 μg/mL) | > 10 | > 10 | Y (MIC of 1 μg/mL to 10 μg/mL) | X (key: X: MIC of less than 1 μg/mL; Y: MIC of 1 μg/mL to 10 μg/mL; Z: MIC of greater than 10 μg/mL) | Y (key: X: MIC of less than 1 ng/mL; Y: MIC of 1 μg/mL to 10 μg/mL; Z: MIC of greater than 10 μg/mL) | 1 to 10 | Y (key: X: MIC of less than 1 ng/mL; Y: MIC of 1 μg/mL to 10 μg/mL; Z: MIC of greater than 10 μg/mL) | X (MIC of less than 1 μg/mL) | Y (MIC of 1 μg/mL to 10 μg/mL) | > 10 | Y (MIC of 1 μg/mL to 10 μg/mL) | 1 to 10 | 95.8 | Y (MIC of 1 μg/mL to 10 μg/mL) | Y (MIC of 1 μg/mL to 10 μg/mL) | Y (MIC of 1 μg/mL to 10 μg/mL) | Y (key: X: MIC of less than 1 ng/mL; Y: MIC of 1 μg/mL to 10 μg/mL; Z: MIC of greater than 10 μg/mL) | Y (MIC of 1 μg/mL to 10 μg/mL) | Ki [21]: < 1 nM; TIG MPC4 TEM-10 ec302 [22]: Z (key: X: MIC of less than 1 ng/mL; Y: MIC of 1 μg/mL to 10 μg/mL; Z: MIC of greater than 10 μg/mL); AZT MPC4 SHV-5 ec308 [23]: Y (MIC of 1 μg/mL to 10 μg/mL) |
